Experimental data reported in patent publication US10907208B2, “Method for screening agents promoting skin barrier function and method for evaluating skin barrier function taking epidermal serine racemase and/or D-serine level as indicator” (Shiseido Company, Ltd, priority 2014, dated 2021).

How the values were obtained:
Assay type in all cases: cell-based, human
fillagrin (FLG) gene = test: Real-time PCR gene expression in three-dimension culture of keratinocytes (3D skin model), fillagrin; details: D-Ser 100 μM, 7 days, corrected by MRPL19, FIG. 5
Experimental: (§1) Human normal keratinocytes were seeded on polycarbonate insert (Millipore) having 12 mm of diameter and 0.4 μm of bore diameter. Then, Human normal keratinocytes were cultured for three days under 5% CO2 atmosphere at 37° C. by adding Cnt-Prime, Epithelial Culture Medium (CELLnTEC Advanced Cell Systems AG) inside and outside of the insert, followed by being cultured for 24 hours by substituting with Cnt-prime 3D Barrier medium (CELLnTEC Advanced Cell Systems AG). […]
(§2) Total RNA extracted by means of Trizol reagent (Invitrogen) was subjected to NanoDrop 1000 Spectrophotometer (Thermo Fisher Scientific) to determine RNA concentration, and then was converted to cDNA by using SuperScriptVIL0 (Invitrogen). Relative expression amount of genes of fillagrin (FLG), cornuline (CRNN) and repetin (RPTN), and mitochondrial ribosome protein L19 (MRPL19) which was used as an internal control gene was determined. […]
(§3) Relative expression amount of the target gene of each group was determined by means of correction using the expression amount of mitochondrial ribosome protein L19 gene (MRPL19) as an internal control (FIGS. 5-7). […]

cornuline (CRNN) gene = test: Real-time PCR gene expression in three-dimension culture of keratinocytes (3D skin model), cornuline; details: D-Ser 100 μM, 7 days, corrected by MRPL19, FIG. 6
Experimental: as §1, §2, §3

repetin (RPTN) gene = test: Real-time PCR gene expression in three-dimension culture of keratinocytes (3D skin model), repetin; details: D-Ser 100 μM, 7 days, corrected by MRPL19, FIG. 7
Experimental: as §1, §2, §3

N[C@H](CO)C(=O)O [D-serine]
increased: expression level of fillagrin gene (fillagrin (FLG) gene; listed as D-Ser) | expression level of cornuline gene (cornuline (CRNN) gene; listed as D-Ser) | expression level of repetin gene (repetin (RPTN) gene; listed as D-Ser)
increases: expression level of fillagrin gene (fillagrin (FLG) gene) | expression level of cornuline gene (cornuline (CRNN) gene) | expression level of repetin gene (repetin (RPTN) gene)
